Assay results published in article PMC11327196, “A phase 1 study to assess the absolute bioavailability, mass balance, pharmacokinetics, metabolism, and excretion of [^14C]-mobocertinib, an oral inhibitor of EGFR exon 20 insertion mutations, in healthy participants” (Investigational New Drugs, 2024).

How the values were obtained:
[1] = Period 1 absolute bioavailability study: plasma PK after IV microdose of [14C]-mobocertinib; format: in vivo, human
Protocol: (§1) This was a two-period, open-label, single-dose phase 1 study (NCT03811834) conducted at one clinical site (Celerion, Lincoln, Nebraska, USA) in healthy male participants. The primary objective of Period 1 was to determine the absolute bioavailability of mobocertinib following a single oral dose of 160 mg mobocertinib as capsules and a single intravenous (IV) microdose of 50 µg (~ 2 µCi) [^14C]-mobocertinib. The primary objectives of Period 2 were to (1) assess the cumulative excretion of total radioactivity in urine and feces (mass balance); (2) assess the metabolite profile of mobocertinib in plasma, urine, and feces; and (3) characterize the PK of mobocertinib, AP32960, and AP32914 in plasma, whole blood, and urine, and total radioactivity concentration equivalents in plasma and whole blood following a single oral dose of 160 mg (~ 100 µCi) [^14C]-mobocertinib as an oral solution. A sample size of 6 healthy males was selected without statistical considerations and deemed adequate to meet the study objectives. Furthermore, the sample size was limited based on clinical considerations for human ADME studies and to limit exposure to radioactivity.
(§2) On Day 1 of Period 1, following an overnight fast of at least 10 h, participants received a single 160 mg dose of non-radiolabeled mobocertinib as capsules. At 3.75 h post oral dosing (i.e., 15 min before the median oral tmax of ~ 4 h), participants received a nominal dose of 50 µg (~ 2 µCi) [^14C]-mobocertinib as a 15-minute IV infusion. However, due to nonspecific binding of [^14C]-mobocertinib to the dosing syringe and tubing, actual doses administered ranged from 36.8 to 38.7 µg (1.47 to 1.55 µCi). Participants were required to stay in the clinic from Day − 1 through at least the 96-hour blood draw (Day 5) or until a discharge criterion was met (i.e., ≥ 80% of the total administered radioactive dose was recovered in urine and fecal samples or excretion of radioactivity in urine and feces combined had declined to ≤ 1% of the total administered dose per day for ≥ 2 consecutive intervals), up to a maximum of 7 days postdose (Day 8). Blood samples for the measurement of plasma mobocertinib, AP32960, and AP32914 concentrations were collected predose and at 0.5, 1, 2, 3, 4, 5, 6, 8, 12, 24, 36, 48, 72, and 96 h after oral administration. Additional blood samples to determine [^14C]-total radioactivity, [^14C]-mobocertinib, [^14C]-AP32960, and [^14C]-AP32914 in plasma were collected at 3.75 h after oral dosing (i.e., predose for [^14C] assessments), at the end of the IV infusion, and at 10, 20, and 30 min, and 1, 2, 4, 8, 20, 32, 44, 68, and 92 h after the end of infusion. […] Urine and feces were collected before oral dosing (− 48–0 h); urine was collected over 0–3.75 h, 3.75–12 h and 12–24 h after oral dosing; feces were collected from 0 to 3.75 h and 3.75–24 h after oral dosing; both urine and feces were then collected over 24-hour intervals until a discharge criterion was met, or up to Day 8 (168 h postdose).
(§3) Plasma, whole blood, and urine samples were assayed for mobocertinib, AP32960, and AP32914 concentrations using liquid chromatography-tandem mass spectrometry (Q2 Solutions, Ithaca, New York, USA). The analytical range for each analyte was 0.250 to 500 ng/mL in whole blood and plasma, and 1.00 to 1000 ng/mL in urine. […] Urine and fecal samples were assayed for total radioactivity following the IV dose of [^14C]-mobocertinib in Period 1, and whole blood, plasma, urine, and fecal samples were assayed for total radioactivity following the oral dose of [^14C]-mobocertinib in Period 2 using liquid scintillation counting (LSC; Celerion, Lincoln, Nebraska, USA; LLOQs: Period 1 urine: 0.115–0.118 ng eq/g, feces: 0.720–0.759 ng eq/g; Period 2 whole blood: 87.3–112 ng eq/g, plasma: 116–132 ng eq/mL, urine: 37.8–46.8 ng eq/g, feces: 110–336 ng eq/g across participants). […]

[2] = Period 1 absolute bioavailability study: plasma PK after single oral 160 mg mobocertinib capsules; format: in vivo, human
Protocol: as §1, §2, §3

[3] = system: EGFRex20ins mutation positive locally advanced or metastatic NSCLC; design: method as in doi:10.1016/j.annonc.2023.10.586; settings: mobocertinib versus chemotherapy, first-line; cited from earlier work
[4] = Period 1, IV infusion 50 µg [14C]-mobocertinib, geometric mean (geometric CV%)
[5] = Period 1, IV infusion 50 µg [14C]-mobocertinib, normalized to a 160 mg dose, geometric mean (geometric CV%)
[6] = Period 1, single oral 160 mg mobocertinib capsules, geometric mean (geometric CV%)

tmax ([1]; Period 1, 15-min IV infusion 50 µg (~2 µCi) [14C]-mobocertinib, median (range)) | CL/F (after IV administration, values represent CL) [1, 4] | Vz/F (after IV administration, values represent Vz) [1, 4] | t1/2z [1, 4] | AUC∞ [1, 5] | Cmax [1, 5] | Compound | CL/F [2, 6] | Cmax [2, 6] | tmax ([2]; Period 1, single oral 160 mg mobocertinib capsules, median (range)) | bioavailability ([2]; male, human, Period 1, oral 160 mg capsules AUC∞ vs dose-normalized IV microdose AUC∞, 90% CI 22.4–60.2%, read-out: geometric mean absolute oral bioavailability) [%] | AUC(0-inf) ([2]; male, human, Period 1, single oral 160 mg mobocertinib capsules, geometric mean (geometric CV%)) [ng·h/mL] | Vd/F ([2]; male, human, Period 1, single oral 160 mg mobocertinib capsules, geometric mean (geometric CV%), read-out: Vz/F) [L] | half-life ([2]; male, human, Period 1, single oral 160 mg mobocertinib capsules, geometric mean (geometric CV%), read-out: t1/2z (converted)) [min] | primary endpoint of phase 3 study [3]
0.26 (0.26–1.25) h | 55.9 (30.0) L/h | 1791 (45.3) L | 22.2 (41.3) h | 2864 (30.0) ng*h/mL | 624.9 (43.6) ng/mL | [^14C]-mobocertinib | – | – | – | – | – | – | – | –
– | – | – | – | – | – | C=CC(=O)Nc1cc(Nc2ncc(C(=O)OC(C)C)c(-c3cn(C)c4ccccc34)n2)c(OC)cc1N(C)CCN(C)C [Mobocertinib] | 152 (64.9) L/h | 56.7 (52.2) ng/mL | 5.0 (4.0–6.0) h | 36.7 | 1050 | 5030 | 1370 | not met
